According to ChEMBL document CHEMBL1201862, “PubChem BioAssay data set” (2004):
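Briefly, cells in 96-well plates were exposed to five compound concentrations for 48 h, and endpoints were estimated by linear interpolation. GI50: concentration for 50% inhibition of growth.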 Calls of active or inactive are those of the source. No stated cut-off is given here; in the data, active = GI50 up to about 1.1 µM and inactive = higher.

Columns and labels:
Experiment in all cases: NCI tumour cell line growth inhibition, 48 h
786-0 = system: 786-0
A498 = system: A498
A549 = system: A549
ACHN = system: ACHN
CAKI-1 = system: CAKI-1
COLO 205 = system: COLO 205
DLD-1 = system: DLD-1
DMS-114 = system: DMS-114
DMS-273 = system: DMS-273
EKVX = system: EKVX
HCC 2998 = system: HCC 2998
HCT-116 = system: HCT-116
HCT-15 = system: HCT-15
HL-60 = system: HL-60
HOP-18 = system: HOP-18
HOP-62 = system: HOP-62
HT-29 = system: HT-29
IGROV-1 = system: IGROV-1
K562 = system: K562
KM-20L2 = system: KM-20L2
KM12 = system: KM12
LOX IMVI = system: LOX IMVI
LXFL 529 = system: LXFL 529
M14 = system: M14
M19-MEL = system: M19-MEL
MOLT-4 = system: MOLT-4
NCI-H226 = system: NCI-H226
NCI-H23 = system: NCI-H23
NCI-H460 = system: NCI-H460
NCI-H522 = system: NCI-H522
OVCAR-3 = system: OVCAR-3
OVCAR-4 = system: OVCAR-4
OVCAR-5 = system: OVCAR-5
OVCAR-8 = system: OVCAR-8
RPMI-8226 = system: RPMI-8226
RXF 631 = system: RXF 631
SF-268 = system: SF-268
SF-295 = system: SF-295
SF-539 = system: SF-539
SK-MEL-28 = system: SK-MEL-28
SK-MEL-2 = system: SK-MEL-2
SK-MEL-5 = system: SK-MEL-5
SK-OV-3 = system: SK-OV-3
SN12C = system: SN12C
SNB-19 = system: SNB-19
SNB-75 = system: SNB-75
SNB-78 = system: SNB-78
SR = system: SR
SW-620 = system: SW-620
TK-10 = system: TK-10
U-251 = system: U-251
UACC-257 = system: UACC-257
UACC-62 = system: UACC-62
UO-31 = system: UO-31
XF498 = system: XF498

Measured: GI50

O=C1CCNC/C1=C\c1ccccc1
17.1 µM: HCT-15
inactive: 786-0 15.6 µM | A498 > 100 µM | A549 22.2 µM | ACHN 22.9 µM | CAKI-1 44.8 µM | COLO 205 40.6 µM | DLD-1 18.9 µM | DMS-114 24.1 µM | DMS-273 25.8 µM | EKVX > 100 µM | HCC 2998 20.1 µM | HCT-116 17.9 µM | HL-60 16.3 µM | HOP-18 > 10 µM | HOP-62 29.1 µM | HT-29 15.6 µM | IGROV-1 29.9 µM | K562 23.1 µM | KM-20L2 14.7 µM | KM12 14.8 µM | LOX IMVI 16.8 µM | LXFL 529 16.1 µM | M14 14 µM | M19-MEL 17.9 µM | MOLT-4 24.7 µM | NCI-H226 24 µM | NCI-H23 18.2 µM | NCI-H460 30.9 µM | NCI-H522 11.3 µM | OVCAR-3 22.9 µM | OVCAR-4 15.9 µM | OVCAR-5 24.7 µM | OVCAR-8 22.2 µM | RPMI-8226 24 µM | RXF 631 26.5 µM | SF-268 19.6 µM | SF-295 26.9 µM | SF-539 17.4 µM | SK-MEL-28 17.4 µM | SK-MEL-2 54 µM | SK-MEL-5 20.3 µM | SK-OV-3 55 µM | SN12C 34.5 µM | SNB-19 19.4 µM | SNB-75 37.8 µM | SNB-78 32.8 µM | SR 25.2 µM | SW-620 21.8 µM | TK-10 26.1 µM | U-251 20.5 µM | UACC-257 25.8 µM | UACC-62 17.1 µM | UO-31 17 µM | XF498 23.9 µM
